Results published in ChEMBL document CHEMBL5291721, “A preclinical secondary pharmacology resource illuminates target-adverse drug reaction associations of marketed drugs” (Nat Commun, 2023).

Tests used:
[1] = target: T1, Oxysterols receptor LXR-alpha (Homo sapiens, UniProt Q13133); assay type: functional
T1 sequence (Q13133 whole entry): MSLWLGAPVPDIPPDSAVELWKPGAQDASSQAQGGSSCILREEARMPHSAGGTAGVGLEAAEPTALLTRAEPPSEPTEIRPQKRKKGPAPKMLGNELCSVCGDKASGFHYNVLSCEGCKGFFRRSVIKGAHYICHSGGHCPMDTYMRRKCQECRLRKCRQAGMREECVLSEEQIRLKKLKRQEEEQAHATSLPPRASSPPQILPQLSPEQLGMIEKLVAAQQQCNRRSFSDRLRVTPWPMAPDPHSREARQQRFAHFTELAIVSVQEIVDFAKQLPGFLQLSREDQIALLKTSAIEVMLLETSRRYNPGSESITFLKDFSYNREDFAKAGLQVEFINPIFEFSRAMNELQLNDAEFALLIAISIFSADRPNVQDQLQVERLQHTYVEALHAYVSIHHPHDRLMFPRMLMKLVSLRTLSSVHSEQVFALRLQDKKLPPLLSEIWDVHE

[2] = target: T2, Retinoic acid receptor alpha (Homo sapiens, UniProt P10276); assay type: functional, cell-based
T2 sequence (P10276 whole entry): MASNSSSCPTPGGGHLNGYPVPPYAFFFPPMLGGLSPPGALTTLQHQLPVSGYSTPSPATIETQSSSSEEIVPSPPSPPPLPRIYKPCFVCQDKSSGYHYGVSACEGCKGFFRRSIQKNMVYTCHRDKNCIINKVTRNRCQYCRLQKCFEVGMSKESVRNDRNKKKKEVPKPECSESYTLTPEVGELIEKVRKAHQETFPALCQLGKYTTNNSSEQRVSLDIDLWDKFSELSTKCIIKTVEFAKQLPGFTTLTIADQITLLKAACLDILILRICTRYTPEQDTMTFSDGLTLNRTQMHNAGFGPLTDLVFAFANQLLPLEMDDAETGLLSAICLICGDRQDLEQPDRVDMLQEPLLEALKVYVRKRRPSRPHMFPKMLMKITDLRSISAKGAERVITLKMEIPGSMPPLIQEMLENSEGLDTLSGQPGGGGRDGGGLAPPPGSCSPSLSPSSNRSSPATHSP

[3] = target: T2, Retinoic acid receptor alpha; assay type: functional, cell-based; remark: listed apart in the source
[4] = target: T3, Retinoic acid receptor beta (Homo sapiens, UniProt P10826); assay type: functional, cell-based
T3 sequence (P10826 whole entry): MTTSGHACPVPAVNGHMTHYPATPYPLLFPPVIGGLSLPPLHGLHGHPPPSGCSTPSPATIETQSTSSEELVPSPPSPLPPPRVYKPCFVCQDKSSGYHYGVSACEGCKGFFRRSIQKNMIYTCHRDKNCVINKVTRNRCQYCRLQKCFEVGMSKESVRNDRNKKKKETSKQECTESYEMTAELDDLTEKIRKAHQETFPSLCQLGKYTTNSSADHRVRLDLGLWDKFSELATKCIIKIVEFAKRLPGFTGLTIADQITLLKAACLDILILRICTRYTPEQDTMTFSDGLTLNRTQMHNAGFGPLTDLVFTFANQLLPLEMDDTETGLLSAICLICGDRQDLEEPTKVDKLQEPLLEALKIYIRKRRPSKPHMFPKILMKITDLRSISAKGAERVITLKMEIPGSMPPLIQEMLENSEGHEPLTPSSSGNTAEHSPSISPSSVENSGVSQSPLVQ

[5] = target: T3, Retinoic acid receptor beta; assay type: functional, cell-based; remark: listed apart in the source
[6] = target: T4, Retinoic acid receptor gamma (Homo sapiens, UniProt P13631); assay type: functional, cell-based
T4 sequence (P13631 whole entry): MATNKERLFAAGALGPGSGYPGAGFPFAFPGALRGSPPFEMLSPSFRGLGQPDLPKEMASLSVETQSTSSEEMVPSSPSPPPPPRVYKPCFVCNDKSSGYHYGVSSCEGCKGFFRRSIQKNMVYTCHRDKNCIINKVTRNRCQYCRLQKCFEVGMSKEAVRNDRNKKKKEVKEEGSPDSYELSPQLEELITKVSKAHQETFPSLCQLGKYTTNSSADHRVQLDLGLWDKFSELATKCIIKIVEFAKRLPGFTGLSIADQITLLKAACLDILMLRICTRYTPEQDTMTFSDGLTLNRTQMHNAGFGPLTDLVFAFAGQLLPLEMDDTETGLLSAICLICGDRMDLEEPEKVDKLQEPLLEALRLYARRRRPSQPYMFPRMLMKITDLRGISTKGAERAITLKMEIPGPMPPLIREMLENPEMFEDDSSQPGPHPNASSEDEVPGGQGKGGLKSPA

[7] = target: T4, Retinoic acid receptor gamma; assay type: functional, cell-based; remark: listed apart in the source
[8] = target: T5, Peroxisome proliferator-activated receptor alpha (Homo sapiens, UniProt Q07869); assay type: functional
T5 sequence (Q07869 whole entry): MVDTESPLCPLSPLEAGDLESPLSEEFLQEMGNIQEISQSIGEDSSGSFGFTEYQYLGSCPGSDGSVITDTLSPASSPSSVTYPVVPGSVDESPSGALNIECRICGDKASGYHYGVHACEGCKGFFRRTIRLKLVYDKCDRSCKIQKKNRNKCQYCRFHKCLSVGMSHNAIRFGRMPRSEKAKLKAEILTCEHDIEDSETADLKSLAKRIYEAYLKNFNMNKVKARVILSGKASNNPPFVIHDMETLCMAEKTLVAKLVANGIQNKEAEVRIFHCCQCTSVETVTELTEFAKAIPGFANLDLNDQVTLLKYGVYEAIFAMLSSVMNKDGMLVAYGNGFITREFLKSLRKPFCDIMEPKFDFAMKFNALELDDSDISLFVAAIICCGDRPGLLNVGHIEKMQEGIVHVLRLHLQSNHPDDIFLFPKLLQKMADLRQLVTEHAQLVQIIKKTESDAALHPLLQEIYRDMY

[9] = target: Rod cGMP-specific 3',5'-cyclic phosphodiesterase subunit alpha (Homo sapiens, UniProt P16499); assay type: functional
Sequence of Rod cGMP-specific 3',5'-cyclic phosphodiesterase subunit alpha (P16499 whole entry): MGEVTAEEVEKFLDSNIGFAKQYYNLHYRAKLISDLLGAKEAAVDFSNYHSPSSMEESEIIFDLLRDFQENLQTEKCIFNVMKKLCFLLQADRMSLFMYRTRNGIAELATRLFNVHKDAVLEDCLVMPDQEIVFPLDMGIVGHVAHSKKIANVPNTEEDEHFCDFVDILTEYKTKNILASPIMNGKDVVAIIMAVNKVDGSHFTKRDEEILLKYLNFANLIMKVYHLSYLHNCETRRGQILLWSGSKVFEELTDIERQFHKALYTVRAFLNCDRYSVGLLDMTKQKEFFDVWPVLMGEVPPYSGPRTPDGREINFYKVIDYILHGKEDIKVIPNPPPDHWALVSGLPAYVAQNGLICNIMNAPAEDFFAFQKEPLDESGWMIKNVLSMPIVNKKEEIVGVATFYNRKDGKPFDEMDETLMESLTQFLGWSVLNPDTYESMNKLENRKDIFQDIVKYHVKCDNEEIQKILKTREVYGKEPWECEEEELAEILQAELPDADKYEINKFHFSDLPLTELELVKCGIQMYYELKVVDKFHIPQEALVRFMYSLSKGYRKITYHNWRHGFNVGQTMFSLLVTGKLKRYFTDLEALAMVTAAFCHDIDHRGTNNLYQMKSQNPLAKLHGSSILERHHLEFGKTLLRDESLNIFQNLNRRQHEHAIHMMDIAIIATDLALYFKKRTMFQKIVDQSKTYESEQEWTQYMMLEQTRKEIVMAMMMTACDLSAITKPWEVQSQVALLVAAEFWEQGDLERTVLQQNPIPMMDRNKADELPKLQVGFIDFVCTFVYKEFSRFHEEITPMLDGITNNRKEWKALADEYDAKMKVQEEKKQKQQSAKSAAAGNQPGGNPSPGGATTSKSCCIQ

[10] = target: T6, Thromboxane A2 receptor (Homo sapiens, UniProt P21731); assay type: functional, cell-based
T6 sequence (P21731 whole entry): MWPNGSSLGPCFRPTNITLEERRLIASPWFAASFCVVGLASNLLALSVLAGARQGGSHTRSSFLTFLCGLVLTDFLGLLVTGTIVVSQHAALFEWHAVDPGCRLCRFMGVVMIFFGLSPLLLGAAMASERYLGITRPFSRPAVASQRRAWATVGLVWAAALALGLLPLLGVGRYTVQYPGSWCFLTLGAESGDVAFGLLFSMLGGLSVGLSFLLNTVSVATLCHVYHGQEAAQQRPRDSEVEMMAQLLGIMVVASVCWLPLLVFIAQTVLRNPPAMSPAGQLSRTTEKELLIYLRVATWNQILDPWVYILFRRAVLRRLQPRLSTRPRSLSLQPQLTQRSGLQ
Also: assay procedure not described here.

CCN(CC)CCNC(=O)c1c(C)[nH]c(/C=C2\C(=O)Nc3ccc(F)cc32)c1C [SUNITINIB]
AC50 [1]: > 30 µM
AC50 [2]: > 10 µM
AC50 [3]: > 3 µM
AC50 [4]: > 3 µM
AC50 [5]: > 30 µM
AC50 [6]: > 30 µM
AC50 [7]: > 10 µM

CC(C)Cc1ccc(C(C)C(=O)O)cc1 (stereo not given) [IBUPROFEN]
AC50 [8]: > 30 µM

Cc1onc(-c2ccccc2)c1-c1ccc(S(N)(=O)=O)cc1 [VALDECOXIB]
AC50 [9]: > 10 µM

C=CC[C@@H]1/C=C(\C)C[C@H](C)C[C@H](OC)[C@H]2O[C@@](O)(C(=O)C(=O)N3CCCC[C@H]3C(=O)O[C@H](/C(C)=C/[C@@H]3CC[C@@H](O)[C@H](OC)C3)[C@H](C)[C@@H](O)CC1=O)[C@H](C)C[C@@H]2OC [TACROLIMUS ANHYDROUS]
AC50 [10]: 10 µM

N[C@@H](CC(=O)N1CCn2c(nnc2C(F)(F)F)C1)Cc1cc(F)c(F)cc1F [SITAGLIPTIN]
AC50 [9]: > 10 µM

CC(C(=O)O)c1ccc2c(c1)[nH]c1ccc(Cl)cc12 (stereo not given) [CARPROFEN]
AC50 [1]: > 30 µM
AC50 [2]: > 30 µM
AC50 [3]: > 30 µM
AC50 [4]: > 30 µM
AC50 [5]: > 30 µM
AC50 [6]: > 30 µM
AC50 [7]: > 30 µM

COc1cc2nccc(Oc3ccc(NC(=O)C4(C(=O)Nc5ccc(F)cc5)CC4)cc3)c2cc1OC [CABOZANTINIB]
AC50 [10]: 5.52 µM

COc1ccccc1Oc1c(NS(=O)(=O)c2ccc(C(C)(C)C)cc2)nc(-c2ncccn2)nc1OCCO [BOSENTAN]
AC50 [8]: > 30 µM
